± gives the expanded uncertainty stated by the source.
Conditions: Liquid; for mass density: 101.33 kPa

FC(F)C(F)(F)C(F)(F)C(F)(F)C(F)(F)C(F)(F)C(F)(F)C(F)F [1,1,2,2,3,3,4,4,5,5,6,6,7,7,8,8-hexadecafluorooctane]
Conditions | mass density [kg/m3] | vapor or sublimation pressure [kPa]
288.15 K | 1775.3 ± 1.9 | –
289.31 K | – | 0.55 ± 0.06
293.15 K | 1764.4 ± 1.9 | –
293.26 K | – | 0.75 ± 0.07
298.15 K | 1753.4 ± 1.9 | –
298.2 K | – | 0.99 ± 0.09
303.15 K | 1742.4 ± 1.9 | –
303.18 K | – | 1.43 ± 0.1
308.15 K | 1731.3 ± 1.8 | –
308.17 K | – | 1.92 ± 0.11
313.15 K | 1720.2 ± 1.8 | –
313.18 K | – | 2.49 ± 0.12
318.14 K | – | 3.12 ± 0.13
323.15 K | – | 4.07 ± 0.15
328.15 K | – | 5.26 ± 0.17
333.14 K | – | 6.64 ± 0.19

— the NIST ThermoML archive (doi:10.1016/j.fluid.2005.09.011)
